This note sets out measurements from patent US8088819B2, “Derivatives of substituted 3-phenyl-1-(phenylthienyl)propan-1-ones and of 3-phenyl-1-(phenylfuranyl) propan-1-ones, preparation and use” (priority 2006, dated 2012).

One data set deals with T1, hPPARalpha (Homo sapiens, UniProt Q07869).
T1 construct: expressed in transfected cells; host or cells: COS-7 (monkey kidney fibroblasts)
T1 sequence (Q07869 239-466 limits assumed): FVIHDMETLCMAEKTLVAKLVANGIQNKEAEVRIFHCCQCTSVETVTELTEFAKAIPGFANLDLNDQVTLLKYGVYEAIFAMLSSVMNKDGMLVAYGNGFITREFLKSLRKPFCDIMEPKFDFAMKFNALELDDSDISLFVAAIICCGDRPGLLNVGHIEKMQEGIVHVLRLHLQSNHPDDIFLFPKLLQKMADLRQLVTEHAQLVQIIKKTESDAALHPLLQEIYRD
The experiment in a line: PPAR activation: Gal4-hPPARα chimera luciferase transactivation in COS-7 cells, Method 1. The format is cell-based. The following applies: COS-7, 24 h; for Emax: maximum percentage response relative to the reference phenofibric acid, read-out: hPPARalpha % max. On the procedure:
(§1) The activation of the PPARs was evaluated in vitro on a line of monkey kidney fibroblasts (COS-7) by measuring the transcriptional activity of chimeras constituted of the DNA binding domain of the Gal4 transcription factor of yeast and the ligand binding domain of the various PPARs. The compounds were tested at doses between 10^−5 and […] on the chimeras Gal4-PPARα, γ or δ, and the corresponding EC50 values were determined.
(§2) The COS-7 cells were obtained from the ATCC and were cultivated in DMEM medium supplemented with 10% (v/v) of fetal calf serum, 100 U/ml of penicillin (Gibco, Paisley, UK) and 2 mM of L-glutamine (Gibco, Paisley, UK). The cells were incubated at 37° C. in a humid atmosphere containing 5% CO2.
(§3) The plasmids Gal4(RE)_TkpGL3, pGal4-hPPARα, pGal4-hPPARγ, pGal4-hPPARδ and pGal4-φ are described in the literature (Raspe E et al., 1999). The constructs pGal4-hPPARα, pGal4-hPPARγ and pGal4-hPPARδ were obtained by cloning DNA fragments amplified by PCR corresponding to the DEF domains of the human nuclear receptors PPARα, PPARγ and PPARδ in the pGal4-φ vector.
(§4) The COS-7 cells in suspension were transfected with 150 ng of DNA per well, with a pGal4-PPAR/Gal4(RE)_TkpGL3 ratio of 1/10, in the presence of 10% fetal calf serum. The cells were seeded in 96-well plates (4×10^4 cells/well) and then incubated at 37° C. for 24 hours. Activation with the test compounds is carried out for 24 h at 37° C. in serum-free medium. At the end of the experiment, the cells were lysed and the luciferase activity was determined using the Steady-Lite™ HTS (Perkin Elmer) following the supplier's recommendations.

Another data set deals with T2, hPPARdelta (Homo sapiens, UniProt Q03181).
T2 construct: expressed in transfected cells; host or cells: COS-7 (monkey kidney fibroblasts)
T2 sequence (Q03181 211-439 limits assumed): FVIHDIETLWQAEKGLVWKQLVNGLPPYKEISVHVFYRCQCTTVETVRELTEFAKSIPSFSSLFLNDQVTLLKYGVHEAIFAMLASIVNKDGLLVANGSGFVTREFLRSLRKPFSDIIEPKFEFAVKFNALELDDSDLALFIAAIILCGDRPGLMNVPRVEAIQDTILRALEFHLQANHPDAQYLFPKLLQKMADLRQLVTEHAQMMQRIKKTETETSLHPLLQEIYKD
Nature of the data set: PPAR activation: Gal4-hPPARδ chimera luciferase transactivation in COS-7 cells, Method 1. The data set is classed as cell-based. The settings on record: COS-7, 24 h; for Emax: maximum percentage response relative to the reference GW501516, read-out: hPPARdelta % max. On the procedure:
as §1, §2, §3, §4

The next data set concerns the target T3, hPPARgamma (Homo sapiens, UniProt P37231).
T3 construct: expressed in transfected cells; host or cells: COS-7 (monkey kidney fibroblasts)
T3 sequence (P37231 238-503 limits assumed): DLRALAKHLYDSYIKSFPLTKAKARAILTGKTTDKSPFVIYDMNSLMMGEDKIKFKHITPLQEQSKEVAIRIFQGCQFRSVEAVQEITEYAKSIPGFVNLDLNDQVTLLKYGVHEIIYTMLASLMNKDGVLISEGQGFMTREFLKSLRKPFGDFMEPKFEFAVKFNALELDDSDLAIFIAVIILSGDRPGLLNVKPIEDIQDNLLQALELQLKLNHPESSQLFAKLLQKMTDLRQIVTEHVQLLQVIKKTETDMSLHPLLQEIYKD
The experiment in a line: PPAR activation: Gal4-hPPARγ chimera luciferase transactivation in COS-7 cells, Method 1. The format is cell-based. The following applies: COS-7, 24 h; for Emax: maximum percentage response relative to the reference rosiglitazone, read-out: hPPARgamma % max. On the procedure:
as §1, §2, §3, §4

For `CC(C)(Oc1ccc(CCC(=O)c2ccc(-c3ccc(C(F)(F)F)cc3)s2)cc1Cl)C(=O)O` [Compound 19, 2-(2-chloro-4-(3-oxo-3-(5-(4-(trifluoromethyl)phenyl)thien-2-yl)-propyl)phenoxy)-2-methylpropanoic acid], the melting point (as a rule, the temperature of the solid-liquid transition) lay within 136 to 137 °C. On hPPARalpha, the EC50 (in general, the concentration needed to bring the measured effect to its halfway point) is 1 nM and the Emax turned out to be 47%. Moreover, on hPPARdelta, the response was half-maximal at 15 nM (EC50) and the Emax came to 85%. Moreover, at hPPARgamma, it took 180 nM to reach a half-maximal effect (EC50) and the Emax was determined as 27%.

As to `CC(C)(Oc1ccc(CCC(=O)c2ccc(-c3ccc(C(F)(F)F)cc3)s2)c(Cl)c1)C(=O)O` [Compound 21, 2-(3-chloro-4-(3-oxo-3-(5-(4-(trifluoromethyl)phenyl)thien-2-yl)-propyl)phenoxy)-2-methylpropanoic acid], the melting point lay within 104 to 106 °C. Moreover, at hPPARalpha, the EC50 amounted to 17 nM and the Emax came to 50%. Also, at hPPARdelta, a half-maximal response (EC50) required 8 nM and the Emax worked out at 97%. For the same compound, on hPPARgamma, it took 80 nM to reach a half-maximal effect (EC50) and the Emax is 63%.

Take `CC(C)(Oc1ccc(CCC(=O)c2ccc(-c3ccc(C(F)(F)F)cc3)s2)cc1F)C(=O)O` [Compound 23, 2-(2-fluoro-4-(3-oxo-3-(5-(4-(trifluoromethyl)phenyl)thien-2-yl)propyl)phenoxy)-2-methylpropanoic acid]: the melting point is 150 to 151 °C. The Emax at hPPARalpha turned out to be 48%. On hPPARdelta, the EC50 worked out at 16 nM and the Emax worked out at 95%. Besides, at hPPARgamma, a half-maximal response (EC50) required 400 nM and the Emax came out at 49%.

The compound `CCC(Oc1ccc(CCC(=O)c2ccc(-c3ccc(C(F)(F)F)cc3)s2)cc1F)C(=O)O` (stereo not shown) [Compound 29, 2-(2-fluoro-4-(3-oxo-3-(5-(4-(trifluoromethyl)phenyl)thien-2-yl)-propyl)phenoxy)butanoic acid] returned a melting point of 119 to 120 °C. Also, on hPPARalpha, the EC50 stood at 2 nM and the Emax is 56%. Moreover, on hPPARdelta, the midpoint of the response, the EC50, lay at 37 nM and the Emax was determined as 88%. Also, on hPPARgamma, it took 1270 nM to reach a half-maximal effect (EC50) and the Emax stood at 65%.

On to `CCC(Oc1ccc(CCC(=O)c2ccc(-c3ccc(C(F)(F)F)cc3)s2)cc1Br)C(=O)O` (stereo not shown) [Compound 32, 2-(2-bromo-4-(3-oxo-3-(5-(4-(trifluoromethyl)phenyl)thien-2-yl)propyl)phenoxy)butanoic acid], for which the melting point lay in the range of 126 to 128 °C. For the same compound, at hPPARalpha, the EC50 stood at 8 nM and the Emax amounted to 52%. In addition, at hPPARdelta, the EC50 stood at 36 nM and the Emax turned out to be 75%. On hPPARgamma, the EC50 is 210 nM and the Emax was 67%.

`O=C(O)COc1ccc(CCC(=O)c2ccc(-c3ccc(C(F)(F)F)cc3)s2)cc1Br` [Compound 34, 2-(2-bromo-4-(3-oxo-3-(5-(4-(trifluoromethyl)phenyl)thien-2-yl)propyl)phenoxy)acetic acid] returned a melting point of 180 to 182 °C. In addition, at hPPARalpha, the response was half-maximal at 60 nM (EC50) and the Emax worked out at 61%. At hPPARdelta, the response was half-maximal at 114 nM (EC50) and the Emax was 95%. For the same compound, the Emax on hPPARgamma came out at 37%.

Turning to `CC(C)(Oc1ccc(CCC(=O)c2ccc(-c3ccc(C(F)(F)F)cc3)s2)cc1Br)C(=O)O` [Compound 36, 2-(2-bromo-4-(3-oxo-3-(5-(4-(trifluoromethyl)phenyl)thien-2-yl)propyl)phenoxy)-2-methylpropanoic acid], the melting point was 102 to 104 °C. For the same compound, on hPPARalpha, the midpoint of the response, the EC50, lay at 5 nM and the Emax is 47%. At hPPARdelta, the EC50 amounted to 9 nM and the Emax is 85%. The Emax on hPPARgamma was 63%.

`CC(C)(Oc1ccc(CCC(=O)c2ccc(-c3ccc(OC(F)(F)F)cc3)s2)c(Cl)c1Cl)C(=O)O` [Compound 44, 2-(2,3-dichloro-4-(3-oxo-3-(5-(4-(trifluoromethoxy)phenyl)thien-2-yl)propyl)phenoxy)-2-methylpropanoic acid] came in with a melting point of 135 to 136 °C. Further, on hPPARalpha, it took 16 nM to reach a half-maximal effect (EC50) and the Emax was 54%. On hPPARdelta, a half-maximal response (EC50) required 27 nM and the Emax came out at 109%. On hPPARgamma, the EC50 worked out at 100 nM and the Emax worked out at 46%.

For `CC(C)(Oc1ccc(CCC(OCc2ccccc2)c2cc(-c3ccc(C(F)(F)F)cc3)cs2)c(Cl)c1Cl)C(=O)O` (stereo not shown) [Compound 61, 2-(4-(3-(benzyloxy)-3-(4-(4-(trifluoromethyl)phenyl)thien-2-yl)propyl)-2,3-dichlorophenoxy)-2-methylpropanoic acid], the melting point lay in the range of 58 to 59 °C. At hPPARalpha, the EC50 amounted to 591 nM and the Emax amounted to 42%. At hPPARdelta, a half-maximal effect (EC50) was put at 6 nM and the Emax came to 101%. Moreover, at hPPARgamma, the midpoint of the response, the EC50, lay at 30 nM and the Emax amounted to 78%.

In the case of `CCC(Oc1ccc(CCC(=O)c2ccc(-c3ccc(C(F)(F)F)cc3)s2)cc1)C(=O)O` (stereo not shown) [Compound 65, 2-(4-(3-oxo-3-(5-(4-(trifluoromethyl)phenyl)thien-2-yl)propyl)-phenoxy)butanoic acid], the melting point was 116 to 117 °C. Also, on hPPARalpha, the EC50 turned out to be 4 nM and the Emax is 52%. Further, on hPPARdelta, the EC50 came to 109 nM and the Emax stood at 79%. Also, the Emax on hPPARgamma stood at 73%.

The compound `O=C(O)COc1ccc(CCC(=O)c2ccc(-c3ccc(C(F)(F)F)cc3)s2)cc1` [Compound 69, 2-(4-(3-oxo-3-(5-(4-(trifluoromethyl)phenyl)thien-2-yl)propyl)-phenoxy)acetic acid] yielded a melting point of 182 to 183 °C. At hPPARalpha, it took 33 nM to reach a half-maximal effect (EC50) and the Emax was determined as 61%. Further, at hPPARdelta, a half-maximal response (EC50) required 292 nM and the Emax is 90%. For the same compound, on hPPARgamma, the EC50 amounted to 3530 nM and the Emax amounted to 15%.
